# Literature values in patent US20040115261A1, “Controlled delivery of tetracycline compounds and tetracycline derivatives” (priority 2003, published 2004).
# Conditions: based on steady-state pharmacokinetics, minimum antibiotic serum concentration = lowest concentration known to exert a significant antibiotic effect
smiles,measurement,value
CN(C)[C@@H]1C(O)=C(C(N)=O)C(=O)[C@@]2(O)C(O)=C3C(=O)c4c(O)cccc4[C@@](C)(O)[C@H]3C[C@@H]12 [tetracycline],plasma antibiotic threshold level,0.5 µg/mL
